Bridge positions count the residues as written; N and C are the ends. Square brackets hold non-standard residues; d marks the D form. Ends that are not written are not given here. I, II: the chains in the order shown. Gla = N[C@@H](CC(C(=O)O)C(=O)O)C(=O)O
Tests used:
human IR-B = human IR-B (Homo sapiens, UniProt P06213); assay: cell-based
[1] = target: human insulin receptor isoform B (hIR-B) (Homo sapiens, UniProt P06213); assay: biochemical; format: binding
[2] = tested on: STZ-induced hyperglycemic mice; conditions: mouse, in vivo

Sequence of human IR-B (P06213 28-758 limits assumed): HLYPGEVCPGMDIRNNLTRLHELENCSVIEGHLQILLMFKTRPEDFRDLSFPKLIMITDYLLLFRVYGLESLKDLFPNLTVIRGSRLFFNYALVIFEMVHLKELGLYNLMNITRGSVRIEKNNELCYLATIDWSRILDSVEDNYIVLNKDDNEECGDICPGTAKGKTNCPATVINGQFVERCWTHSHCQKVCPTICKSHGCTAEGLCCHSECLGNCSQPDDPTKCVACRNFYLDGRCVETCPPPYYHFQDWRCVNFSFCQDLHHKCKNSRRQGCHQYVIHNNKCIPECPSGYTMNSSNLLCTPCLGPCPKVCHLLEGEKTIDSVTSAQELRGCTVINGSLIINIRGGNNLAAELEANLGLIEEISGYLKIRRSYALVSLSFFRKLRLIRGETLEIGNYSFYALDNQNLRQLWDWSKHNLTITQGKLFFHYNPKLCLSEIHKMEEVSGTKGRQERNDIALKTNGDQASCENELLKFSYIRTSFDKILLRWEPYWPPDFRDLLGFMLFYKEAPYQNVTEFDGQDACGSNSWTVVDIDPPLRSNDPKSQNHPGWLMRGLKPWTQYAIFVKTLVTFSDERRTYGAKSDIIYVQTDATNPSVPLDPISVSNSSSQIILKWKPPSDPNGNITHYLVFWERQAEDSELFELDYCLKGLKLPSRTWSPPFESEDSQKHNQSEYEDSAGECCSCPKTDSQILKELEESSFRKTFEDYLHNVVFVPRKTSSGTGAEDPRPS
Sequence of human IR-B (P06213 763-1382 partner limits assumed): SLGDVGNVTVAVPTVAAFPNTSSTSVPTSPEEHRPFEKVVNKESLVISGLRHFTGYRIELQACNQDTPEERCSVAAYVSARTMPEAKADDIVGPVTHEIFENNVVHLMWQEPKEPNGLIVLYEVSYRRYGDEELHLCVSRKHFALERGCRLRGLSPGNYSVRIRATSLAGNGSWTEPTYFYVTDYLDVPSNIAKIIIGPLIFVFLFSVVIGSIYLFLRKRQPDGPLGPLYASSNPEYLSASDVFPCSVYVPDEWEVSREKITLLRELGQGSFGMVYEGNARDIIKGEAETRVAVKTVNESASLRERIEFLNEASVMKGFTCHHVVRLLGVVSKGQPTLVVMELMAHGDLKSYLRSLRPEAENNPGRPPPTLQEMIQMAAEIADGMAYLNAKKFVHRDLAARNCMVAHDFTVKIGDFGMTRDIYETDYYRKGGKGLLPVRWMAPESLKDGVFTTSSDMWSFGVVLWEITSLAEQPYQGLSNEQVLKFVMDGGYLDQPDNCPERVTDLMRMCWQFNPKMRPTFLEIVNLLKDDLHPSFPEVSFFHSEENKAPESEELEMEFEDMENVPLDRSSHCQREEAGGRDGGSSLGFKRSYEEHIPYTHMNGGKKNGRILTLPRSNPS
Sequence of human insulin receptor isoform B (hIR-B) (P06213 28-758 limits assumed): as the sequence (P06213 28-758 limits assumed) above
Sequence of human insulin receptor isoform B (hIR-B) (P06213 763-1382 partner limits assumed): as the sequence (P06213 763-1382 partner limits assumed) above

## I: NSDTPKHRCGSELADQYVQLCH-NH2 / II: GIV[Gla]VCCDNPCTVATLRTFCH-OH (disulfide I:9-II:7, I:21-II:20, II:6-II:11) [Con-Ins G3]
Human IR-B
  potency against the human IR-B compared with Con-Ins G1 (in words): more than one order of magnitude less potent

## I: NSDTPWNRCGSQITDSYR[Gla]LCPH / II: GVV[Gla]HCCKRACSNA[Gla]FMQFC-NH2 (disulfide I:9-II:7, I:21-II:20, II:6-II:11) [Con-Ins T2]
[1]
  IC50: 31.8 nM
Human IR-B
  EC50: 15.5 nM

## I: SDSGTTLVRRRLCGS[Gla]LVTYLGELCLGN / II: GIV[Gla]DCCYNDCTDEKLKEYCHTLQ-NH2 (disulfide I:13-II:7, I:25-II:20, II:6-II:11) [Con-Ins K1]
[2]
  Reversal of hyperglycemia (in words): effectively reversed hyperglycemia
[2]; SEM
  Blood glucose, starting value: 404 (±25) mg/dL
